According to patent US7319089B2, “Maurocalcine, analogues thereof and their therapeutical uses” (priority 2000, dated 2008):
Several values for one entry are separate records, joined by “and”; a condition that tells them apart may be missing. Equal entries are not always repeated. Entries after “also recorded” stand apart in the source; their conditions may differ. Positions of bridges follow the written chain, without caps; N, C: chain ends. Residues, ends and D or L forms follow the SMILES beside them.

Key:
[1] = target: T1, type 1 ryanodine receptor (RyR1) (Homo sapiens, UniProt P21817); assay type: biochemical; set-up: sMCa-modified channels blocked by ruthenium red: dose or concentration left out as unconfirmed; conditions: for reversibility of the induced subconductance states on perfusion of the cis chamber: channel modified by sMCa and ryanodine, trace 5
T1 construct: from tissue; host or cells: sarcoplasmic reticulum (SR) vesicles
T1 sequence (P21817 whole entry, species assumed, the tested form may be a part): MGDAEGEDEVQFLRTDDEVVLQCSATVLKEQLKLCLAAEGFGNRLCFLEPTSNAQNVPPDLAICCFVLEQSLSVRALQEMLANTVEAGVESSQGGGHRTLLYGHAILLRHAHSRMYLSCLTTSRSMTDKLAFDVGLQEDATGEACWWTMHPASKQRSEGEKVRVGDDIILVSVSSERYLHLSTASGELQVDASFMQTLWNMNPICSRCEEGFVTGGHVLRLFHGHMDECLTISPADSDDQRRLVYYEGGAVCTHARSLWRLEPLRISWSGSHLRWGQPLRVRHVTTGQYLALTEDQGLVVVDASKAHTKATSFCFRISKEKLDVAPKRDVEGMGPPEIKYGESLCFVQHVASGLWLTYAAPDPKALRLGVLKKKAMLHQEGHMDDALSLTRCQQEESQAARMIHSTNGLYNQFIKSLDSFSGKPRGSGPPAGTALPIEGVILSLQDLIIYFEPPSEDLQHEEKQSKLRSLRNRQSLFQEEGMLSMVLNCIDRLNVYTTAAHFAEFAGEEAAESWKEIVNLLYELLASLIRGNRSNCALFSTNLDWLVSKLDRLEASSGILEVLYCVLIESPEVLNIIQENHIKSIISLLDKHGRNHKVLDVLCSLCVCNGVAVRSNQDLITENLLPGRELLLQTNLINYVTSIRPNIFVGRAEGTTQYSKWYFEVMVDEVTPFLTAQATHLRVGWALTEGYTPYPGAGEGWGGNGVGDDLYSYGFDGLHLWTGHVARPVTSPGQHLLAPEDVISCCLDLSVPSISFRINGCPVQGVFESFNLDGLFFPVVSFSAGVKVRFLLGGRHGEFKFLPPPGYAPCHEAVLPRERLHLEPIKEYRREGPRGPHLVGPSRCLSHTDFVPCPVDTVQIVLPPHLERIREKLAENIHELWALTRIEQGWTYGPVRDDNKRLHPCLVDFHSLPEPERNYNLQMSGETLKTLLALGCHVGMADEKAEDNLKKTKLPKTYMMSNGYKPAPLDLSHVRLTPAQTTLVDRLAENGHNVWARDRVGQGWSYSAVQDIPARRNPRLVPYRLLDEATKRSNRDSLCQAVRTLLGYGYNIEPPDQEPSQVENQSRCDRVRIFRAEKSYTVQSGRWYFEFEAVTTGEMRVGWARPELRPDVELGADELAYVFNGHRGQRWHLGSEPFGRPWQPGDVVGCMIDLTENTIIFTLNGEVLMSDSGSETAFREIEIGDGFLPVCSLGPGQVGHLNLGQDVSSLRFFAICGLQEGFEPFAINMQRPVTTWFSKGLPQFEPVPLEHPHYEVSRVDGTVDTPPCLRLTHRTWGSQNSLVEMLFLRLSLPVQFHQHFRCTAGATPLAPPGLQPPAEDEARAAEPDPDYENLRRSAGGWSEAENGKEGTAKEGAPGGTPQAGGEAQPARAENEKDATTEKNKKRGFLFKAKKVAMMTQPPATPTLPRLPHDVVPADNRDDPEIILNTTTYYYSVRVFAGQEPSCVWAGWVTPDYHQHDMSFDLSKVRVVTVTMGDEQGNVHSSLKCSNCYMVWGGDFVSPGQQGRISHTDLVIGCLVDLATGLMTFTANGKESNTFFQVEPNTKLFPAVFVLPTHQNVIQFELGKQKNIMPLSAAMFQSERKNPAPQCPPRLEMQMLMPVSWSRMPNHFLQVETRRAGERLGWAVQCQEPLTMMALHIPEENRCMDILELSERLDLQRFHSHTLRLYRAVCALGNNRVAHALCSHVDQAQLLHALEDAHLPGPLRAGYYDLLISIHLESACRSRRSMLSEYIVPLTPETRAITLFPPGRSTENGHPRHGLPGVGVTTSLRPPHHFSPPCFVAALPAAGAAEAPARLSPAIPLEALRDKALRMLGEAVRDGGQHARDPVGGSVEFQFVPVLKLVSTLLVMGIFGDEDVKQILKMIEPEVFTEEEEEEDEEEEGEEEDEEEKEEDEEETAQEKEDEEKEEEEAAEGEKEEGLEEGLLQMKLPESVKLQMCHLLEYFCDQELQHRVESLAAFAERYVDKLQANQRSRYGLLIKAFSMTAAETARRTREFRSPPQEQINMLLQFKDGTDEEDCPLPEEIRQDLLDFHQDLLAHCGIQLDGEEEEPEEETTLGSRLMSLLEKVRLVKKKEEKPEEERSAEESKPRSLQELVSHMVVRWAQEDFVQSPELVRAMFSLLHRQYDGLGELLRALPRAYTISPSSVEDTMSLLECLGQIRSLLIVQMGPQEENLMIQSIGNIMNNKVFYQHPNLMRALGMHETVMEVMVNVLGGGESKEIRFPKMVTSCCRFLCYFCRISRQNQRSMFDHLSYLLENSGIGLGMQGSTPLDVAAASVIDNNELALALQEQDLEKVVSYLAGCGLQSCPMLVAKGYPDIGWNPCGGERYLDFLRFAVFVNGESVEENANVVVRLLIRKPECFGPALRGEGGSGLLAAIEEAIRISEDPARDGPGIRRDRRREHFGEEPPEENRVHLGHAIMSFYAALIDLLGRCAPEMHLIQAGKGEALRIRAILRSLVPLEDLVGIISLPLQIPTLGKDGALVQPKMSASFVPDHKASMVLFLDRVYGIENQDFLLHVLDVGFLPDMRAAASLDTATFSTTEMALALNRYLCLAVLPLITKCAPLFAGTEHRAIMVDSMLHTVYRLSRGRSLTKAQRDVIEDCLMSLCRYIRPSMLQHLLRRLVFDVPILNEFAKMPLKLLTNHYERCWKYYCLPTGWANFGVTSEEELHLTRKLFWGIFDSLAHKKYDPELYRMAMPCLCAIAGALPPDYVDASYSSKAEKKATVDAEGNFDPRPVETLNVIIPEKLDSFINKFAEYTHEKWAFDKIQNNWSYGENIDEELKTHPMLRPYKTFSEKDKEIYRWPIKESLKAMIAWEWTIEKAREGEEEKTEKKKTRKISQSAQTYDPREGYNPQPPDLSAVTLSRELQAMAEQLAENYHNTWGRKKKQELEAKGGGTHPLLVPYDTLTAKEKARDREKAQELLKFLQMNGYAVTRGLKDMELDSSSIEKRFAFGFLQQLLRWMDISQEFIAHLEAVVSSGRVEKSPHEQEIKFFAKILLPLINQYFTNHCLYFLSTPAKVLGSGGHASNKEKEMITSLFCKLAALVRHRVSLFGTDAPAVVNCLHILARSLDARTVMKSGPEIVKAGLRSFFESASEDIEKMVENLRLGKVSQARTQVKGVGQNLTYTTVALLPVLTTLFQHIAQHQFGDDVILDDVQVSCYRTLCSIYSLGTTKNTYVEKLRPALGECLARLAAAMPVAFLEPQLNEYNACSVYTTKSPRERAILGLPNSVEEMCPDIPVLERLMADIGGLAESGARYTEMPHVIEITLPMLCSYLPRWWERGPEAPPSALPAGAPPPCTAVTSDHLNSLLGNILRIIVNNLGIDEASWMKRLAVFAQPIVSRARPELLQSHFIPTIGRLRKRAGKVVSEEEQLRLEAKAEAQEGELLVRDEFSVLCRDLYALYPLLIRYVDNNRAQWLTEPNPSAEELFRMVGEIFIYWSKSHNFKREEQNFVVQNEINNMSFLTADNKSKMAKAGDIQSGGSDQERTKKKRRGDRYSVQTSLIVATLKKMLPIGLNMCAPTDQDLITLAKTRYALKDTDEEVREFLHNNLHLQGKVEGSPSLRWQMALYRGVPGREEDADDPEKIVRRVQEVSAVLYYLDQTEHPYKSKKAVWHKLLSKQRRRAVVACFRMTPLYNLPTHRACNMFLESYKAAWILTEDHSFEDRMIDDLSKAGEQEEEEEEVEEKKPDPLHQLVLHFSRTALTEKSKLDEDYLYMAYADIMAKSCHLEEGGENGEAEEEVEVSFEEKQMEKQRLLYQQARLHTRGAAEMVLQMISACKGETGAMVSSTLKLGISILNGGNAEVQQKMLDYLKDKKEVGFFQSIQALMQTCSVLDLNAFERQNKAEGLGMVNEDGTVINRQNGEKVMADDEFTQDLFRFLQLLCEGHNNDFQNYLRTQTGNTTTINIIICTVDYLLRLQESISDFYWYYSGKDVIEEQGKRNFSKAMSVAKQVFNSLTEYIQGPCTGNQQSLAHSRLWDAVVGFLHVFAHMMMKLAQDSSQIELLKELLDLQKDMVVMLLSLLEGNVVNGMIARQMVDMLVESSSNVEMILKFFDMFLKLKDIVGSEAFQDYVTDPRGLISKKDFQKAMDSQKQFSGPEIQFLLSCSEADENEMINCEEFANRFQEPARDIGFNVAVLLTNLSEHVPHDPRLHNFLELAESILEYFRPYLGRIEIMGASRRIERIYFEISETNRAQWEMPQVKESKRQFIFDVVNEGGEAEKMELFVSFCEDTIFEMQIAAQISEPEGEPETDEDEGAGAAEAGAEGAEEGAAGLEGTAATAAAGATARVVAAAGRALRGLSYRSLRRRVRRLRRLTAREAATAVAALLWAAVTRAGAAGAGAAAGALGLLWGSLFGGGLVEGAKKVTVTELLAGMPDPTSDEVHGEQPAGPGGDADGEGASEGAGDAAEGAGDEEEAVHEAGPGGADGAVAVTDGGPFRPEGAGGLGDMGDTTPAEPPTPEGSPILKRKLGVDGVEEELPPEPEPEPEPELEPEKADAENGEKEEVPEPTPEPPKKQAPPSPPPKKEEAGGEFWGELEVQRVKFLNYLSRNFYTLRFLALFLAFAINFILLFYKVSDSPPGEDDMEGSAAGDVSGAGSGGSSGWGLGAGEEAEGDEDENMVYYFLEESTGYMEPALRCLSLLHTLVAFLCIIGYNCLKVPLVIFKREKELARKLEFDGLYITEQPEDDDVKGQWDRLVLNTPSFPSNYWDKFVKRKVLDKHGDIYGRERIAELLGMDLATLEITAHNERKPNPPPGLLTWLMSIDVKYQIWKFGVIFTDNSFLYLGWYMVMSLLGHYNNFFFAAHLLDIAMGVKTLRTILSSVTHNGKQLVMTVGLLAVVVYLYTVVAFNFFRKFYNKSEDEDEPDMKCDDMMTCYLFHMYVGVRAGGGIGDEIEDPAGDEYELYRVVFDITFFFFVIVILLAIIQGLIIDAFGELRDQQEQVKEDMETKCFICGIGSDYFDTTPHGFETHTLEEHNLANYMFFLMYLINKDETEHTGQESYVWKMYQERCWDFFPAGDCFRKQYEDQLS
Method: Single-channel recording: Cs^+ current through single RyR1 channels incorporated into planar lipid bilayers (BLM) was measured in an asymmetric CsCl (10:1 cis:trans) solution. The BLM was formed from a mixture of phosphatidylethanolamine and phosphatidylcholine (5:2, w/w) at 30-50 mg/ml in decane, across a […] aperture in a 1.0 ml polystyrene cup. SR vesicles were added to the cis side of chamber at a final concentration of 0.1-10 mg/ml. The cis solution contained 500 mM CsCl, ˜7 mM CaCl2, 20 mM HEPES, pH 7.4, and the trans solution contained 50 mM CsCl, 7 mM free Ca^2+, 20 mM HEPES, pH 7.4. The monovalent cation Cs^+ was used as permeant ion instead of divalent cations (such as Ca^2+) owing to its better permeability through RyR1. After a single fusion event, sarcoplasmic reticulum (SR) vesicles in cis chamber were quickly removed by perfusion with 9× volume of is solution. Single-channel current was measured under voltage clamp using a Dagan 3900 amplifier (Dagan Instruments, Minneapolis, Minn.). Holding potentials were with respect to the trans (ground) chamber, and positive current was defined as current flowing from cis to trans. Current signals were captured at 10 kHz and filtered at 1 kHz using a four pole Bessel filter. Data was digitized with a Digidata 1200 interface (Axon Instruments, Burlingame, Calif.) and stored on computer for subsequent analysis. Unless otherwise stated, test chemicals were sequentially added to the cis solution after an initial period of recording control channel behaviour. Single channel activity was analyzed with pCLAMP 7.0 (Axon Instruments). Current levels were analyzed by mean-variance analysis and peaks in the all-points amplitude histogram were fitted with Gaussian functions. The all-points amplitude histograms were constructed from selected segments-of data 20-150 sec in length to quantify the incidence of full and subconductance states.
To test this hypothesis, we performed electrophysiological experiments on single RyR1 channels incorporated into planar lipid bilayers.

mice = test: Lethality after intracerebroventricular injection in mice
[2] = target: T1, type 1 ryanodine receptor (RyR1); conditions: comparison with sMCa; cited from earlier work
[3] = sMCa and ryanodine (1 μM) both present

Compound: N.N.N.N.N.N.N.N.N.N.N.N.N.N.[Cl-].[Cl-].[Cl-].[Cl-].[Cl-].[Cl-].[O-2].[O-2].[Ru+3].[Ru+3].[Ru+4] [ruthenium red, reference compound]
- block of the ryanodine/sMCa modified channel [1]: completely blocked
- sMCa-modified channels blocked by ruthenium red ([1]; ruthenium red): Five out of six channels

Compound: CC[C@H](C)[C@@H]1NC(=O)[C@H](CC(N)=O)NC(=O)[C@H]([C@@H](C)O)NC(=O)CNC(=O)[C@H](CCCNC(=N)N)NC(=O)[C@H](CCCNC(=N)N)NC(=O)[C@H](CCCCN)NC(=O)[C@@H]2CSSC[C@@H]3NC(=O)[C@H](CC(C)C)NC(=O)[C@H](CCCCN)NC(=O)[C@H](CC(C)C)NC(=O)[C@H](Cc4c[nH]cn4)NC(=O)[C@@H]4CCCN4C(=O)[C@H](CC(C)C)NC(=O)[C@@H](NC(=O)[C@H](CC(=O)O)NC(=O)CN)CSSC[C@H](NC(=O)[C@H](CSSC[C@@H](C(=O)N[C@@H](CCCNC(=N)N)C(=O)O)NC(=O)[C@H](CCCNC(=N)N)NC(=O)[C@H](CCCCN)NC(=O)[C@H](CCC(=O)O)NC1=O)NC(=O)[C@H](CC(=O)O)NC(=O)[C@H](CCCCN)NC(=O)[C@H](CC(N)=O)NC(=O)[C@H](CCC(=O)O)NC(=O)[C@H](CCCCN)NC3=O)C(=O)N[C@@H](CO)C(=O)N[C@@H](CCCCN)C(=O)N[C@@H](CCCCN)C(=O)N2 [sMCa, maurocalcine] (H-GDCLPHLKLCKENKDCCSKKCKRRGTNIEKRCR-OH; disulfide 3-17, 10-21, 16-32)
- reversibility of the induced subconductance states on perfusion of the cis chamber [1]: reversed the sMCa-induced quarter states
- effect on RyR1 channel gating, toxin applied on the cis (cytoplasmic) side ([1]; nanomolar concentration (5 nM to 1 μM), cis chamber): dramatically modified the channel gating behavior; also recorded: potently and reversibly modifies channel gating behaviour; also recorded: potently activates RyR1 channels
- minor subconductance induced, fraction of the full conductance level ([1]; sMCa alone, cis, to a smaller extent): one-quarter
- predominant subconductance induced, fraction of the characteristic full conductance ([1]; sMCa alone, cis, traces 1-3): one-half
- half subconductance, % of the characteristic control conductance level [1, 3]: ~50.5% and 51%
- quarter subconductance, % of the characteristic control conductance level [1, 3]: ~29.3% and 29%
- effect on RyR1, toxin applied on the trans (luminal) side ([1]; trans side): No effect
- LD50 (mice): 20 μg per mouse

Compound: Imperatoxin A (GDCLPHLKRCKADNDCCGKKCKRRGTNAEKRCR; UniProt P59868 1-33, looked up) [IpTx A]
- conductance state of RyR1 favoured [2]: ⅓

Compound: ryanodine [reference compound]
- reversibility of the induced subconductance states on perfusion of the cis chamber [1]: ryanodine-mediated half-states persisted
- sMCa-modified channels subsequently modified by ryanodine ([1]; ryanodine 1 μM): Four out of five channels
